Results from patent US20050106152A1, “Preventives/remedies for cancer” (priority 2001, published 2005).

Experiments:
SUV39H1 = test: quantitative PCR of SUV39H1 expression (RNA) after antisense oligonucleotide transfection; format: cell-based, human; conditions: MDA-MB-231 cells, 7 hours after transfection, compared to control (reverse) oligonucleotide (100%)
Text: First, the antisense (SEQ ID NO: 4) to the full-length sequence shown by SEQ ID NO: 3 was designed. Thereafter, phosphorothioated oligonucleotide was synthesized, purified on HPLC and used for the transfection test (Amersham Pharmacia Biotech). For control oligonucleotide, a reverse sequence (SEQ ID NO: 5) of the base sequence represented by SEQ ID NO: 4 was likewise phosphorothioated, purified on HPLC and used for the test (Amersham Pharmacia Biotech).
Breast cancer cell line MDA-MB-231 (In Vitro, 14 (11), 911-915, 1978, purchased from ATCC) was used as cells to be tested and on the day before transfecting the oligonucleotide, the cells were plated in 18×10^3 on a 24-well plate (manufactured by Falcon). To transfect the oligonucleotide, OligofectAMINE (manufactured by Invitrogen) was used to follow its protocol. In accordance with the protocol of RNeasy mini kit (manufactured by Qiagen), RNA was extracted 7 hours after the transfection and cDNA was prepared using TaqMan Reverse Transcription Reagents (manufactured by Applied Biosystems). Using 2 primers (SEQ ID NO: 6 and SEQ ID NO: 7) and probe (SEQ ID NO: 8; Amersham Pharmacia Biotech), quantitative PCR was carried out by ABI PRISM TM 7700 Sequence Detector (manufactured by Applied Biosystems). […]

[1] = test system: Breast cancer cell line MDA-MB-231; test: apoptosis by cell death detection ELISA after antisense oligonucleotide transfection; format: cell-based, human; conditions: MDA-MB-231 cells, 3 days after transfection, compared to control (100%)

antisense: phosphorothioated antisense oligonucleotide (SEQ ID NO: 4) to the full-length SUV39H1 sequence shown by SEQ ID NO: 3 (antisense ATGCGTCCCAGATGGCTGCG; all phosphorothioate, sugars by position and methylation of C not given here)
expression (RNA) of SUV39H1 (SUV39H1): 70% | apoptosis [1]: 213%
